According to ChEMBL document CHEMBL5370535, “Thiazolyl hydrazineylidenyl indolones as unique potential multitargeting broad-spectrum antimicrobial agents” (Eur J Med Chem, 2023):
In brackets after ≈: the same amount, converted by molar mass.

Legend:
Format in all cases: functional
[1] = tested on: Staphylococcus aureus; assay: Antibacterial activity against methicillin-resistant Staphylococcus aureus assessed as bacterial growth inhibition incubated for 24 hrs by CLSI based two serial dilution assay
[2] = tested on: Enterococcus faecalis; assay: Antibacterial activity against Enterococcus faecalis assessed as bacterial growth inhibition incubated for 24 hrs by CLSI based two serial dilution assay
[3] = tested on: Staphylococcus aureus; assay: Antibacterial activity against Staphylococcus aureus assessed as bacterial growth inhibition incubated for 24 hrs by CLSI based two serial dilution assay
[4] = tested on: Staphylococcus aureus; assay: Antibacterial activity against Staphylococcus aureus 25923 assessed as bacterial growth inhibition incubated for 24 hrs by CLSI based two serial dilution assay
[5] = tested on: Staphylococcus aureus; assay: Antibacterial activity against Staphylococcus aureus 29213 assessed as bacterial growth inhibition incubated for 24 hrs by CLSI based two serial dilution assay
[6] = tested on: Klebsiella pneumoniae; assay: Antibacterial activity against Klebsiella pneumoniae assessed as bacterial growth inhibition incubated for 24 hrs by CLSI based two serial dilution assay
[7] = tested on: Escherichia coli; assay: Antibacterial activity against Escherichia coli assessed as bacterial growth inhibition incubated for 24 hrs by CLSI based two serial dilution assay
[8] = tested on: Escherichia coli; assay: Antibacterial activity against Escherichia coli 25922 assessed as bacterial growth inhibition incubated for 24 hrs by CLSI based two serial dilution assay
[9] = tested on: Pseudomonas aeruginosa; assay: Antibacterial activity against Pseudomonas aeruginosa assessed as bacterial growth inhibition incubated for 24 hrs by CLSI based two serial dilution assay
[10] = tested on: Pseudomonas aeruginosa; assay: Antibacterial activity against Pseudomonas aeruginosa ATCC 27853 assessed as bacterial growth inhibition incubated for 24 hrs by CLSI based two serial dilution assay
[11] = tested on: Acinetobacter baumannii; assay: Antibacterial activity against Acinetobacter baumannii assessed as bacterial growth inhibition incubated for 24 hrs by CLSI based two serial dilution assay
[12] = tested on: Candida albicans; assay: Antifungal activity against Candida albicans assessed as inhibition of fungal growth incubated for 24 hrs by CLSI based two serial dilution assay
[13] = tested on: Candida albicans; assay: Antifungal activity against Candida albicans ATCC 90023 assessed as inhibition of fungal growth incubated for 24 hrs by CLSI based two serial dilution assay
[14] = tested on: Candida tropicalis; assay: Antifungal activity against Candida tropicalis assessed as inhibition of fungal growth incubated for 24 hrs by CLSI based two serial dilution assay
[15] = tested on: Candida parapsilosis; assay: Antifungal activity against Candida parapsilosis ATCC 22019 assessed as inhibition of fungal growth incubated for 24 hrs by CLSI based two serial dilution assay; conditions: Lodderomyces parapsilosis
[16] = tested on: Aspergillus fumigatus; assay: Antifungal activity against Aspergillus fumigatus assessed as inhibition of fungal growth incubated for 24 hrs by CLSI based two serial dilution assay

Row | Compound | MIC [1] [µM] | MIC [2] [µM] | MIC [3] [µM] | MIC [4] [µM] | MIC [5] [µM] | MIC [6] [µM] | MIC [7] [µM] | MIC [8] [µM] | MIC [9] [µM] | MIC [10] [µM] | MIC [11] [µM] | MIC [12] [µM] | MIC [13] [µM] | MIC [14] [µM] | MIC [15] [µM] | MIC [16] [µM]
1 | CCCCN1C(=O)/C(=N\Nc2nccs2)c2cccc(F)c21 | 4 (≈ 1.27 µg/mL) | 2 (≈ 0.637 µg/mL) | 16 (≈ 5.09 µg/mL) | 1 (≈ 0.318 µg/mL) | 16 (≈ 5.09 µg/mL) | 1 (≈ 0.318 µg/mL) | 4 (≈ 1.27 µg/mL) | 1 (≈ 0.318 µg/mL) | 1 (≈ 0.318 µg/mL) | 1 (≈ 0.318 µg/mL) | 0.5 (≈ 0.159 µg/mL) | 32 (≈ 10.2 µg/mL) | 4 (≈ 1.27 µg/mL) | 1 (≈ 0.318 µg/mL) | 4 (≈ 1.27 µg/mL) | 256 (≈ 81.5 µg/mL)
2 | CCCCN1C(=O)/C(=N\Nc2nccs2)c2ccc(Br)cc21 | 1 (≈ 0.379 µg/mL) | 4 (≈ 1.52 µg/mL) | 1 (≈ 0.379 µg/mL) | 0.5 (≈ 0.19 µg/mL) | 4 (≈ 1.52 µg/mL) | 0.5 (≈ 0.19 µg/mL) | 0.5 (≈ 0.19 µg/mL) | 16 (≈ 6.07 µg/mL) | 1 (≈ 0.379 µg/mL) | 0.5 (≈ 0.19 µg/mL) | 0.5 (≈ 0.19 µg/mL) | 0.5 (≈ 0.19 µg/mL) | 1 (≈ 0.379 µg/mL) | 1 (≈ 0.379 µg/mL) | 0.5 (≈ 0.19 µg/mL) | 0.5 (≈ 0.19 µg/mL)
3 | CCCCN1C(=O)/C(=N\Nc2nc(C)c(C(C)=O)s2)c2ccccc21 | 512 (≈ 183 µg/mL) | 512 (≈ 183 µg/mL) | 16 (≈ 5.7 µg/mL) | 512 (≈ 183 µg/mL) | 16 (≈ 5.7 µg/mL) | 512 (≈ 183 µg/mL) | 512 (≈ 183 µg/mL) | 512 (≈ 183 µg/mL) | 16 (≈ 5.7 µg/mL) | 512 (≈ 183 µg/mL) | 512 (≈ 183 µg/mL) | 512 (≈ 183 µg/mL) | 512 (≈ 183 µg/mL) | 512 (≈ 183 µg/mL) | 512 (≈ 183 µg/mL) | 512 (≈ 183 µg/mL)
4 | CCCCN1C(=O)/C(=N\Nc2nccs2)c2c(Cl)cc(Cl)cc21 | 1 (≈ 0.369 µg/mL) | 4 (≈ 1.48 µg/mL) | 2 (≈ 0.739 µg/mL) | 1 (≈ 0.369 µg/mL) | 2 (≈ 0.739 µg/mL) | 1 (≈ 0.369 µg/mL) | 32 (≈ 11.8 µg/mL) | 1 (≈ 0.369 µg/mL) | 2 (≈ 0.739 µg/mL) | 512 (≈ 189 µg/mL) | 512 (≈ 189 µg/mL) | 0.5 (≈ 0.185 µg/mL) | 2 (≈ 0.739 µg/mL) | 1 (≈ 0.369 µg/mL) | 256 (≈ 94.5 µg/mL) | 128 (≈ 47.3 µg/mL)
5 | CCCCN1C(=O)/C(=N\Nc2nccs2)c2ccc(F)cc21 | 4 (≈ 1.27 µg/mL) | 32 (≈ 10.2 µg/mL) | 4 (≈ 1.27 µg/mL) | 4 (≈ 1.27 µg/mL) | 4 (≈ 1.27 µg/mL) | 2 (≈ 0.637 µg/mL) | 2 (≈ 0.637 µg/mL) | 4 (≈ 1.27 µg/mL) | 1 (≈ 0.318 µg/mL) | 2 (≈ 0.637 µg/mL) | 1 (≈ 0.318 µg/mL) | 2 (≈ 0.637 µg/mL) | 4 (≈ 1.27 µg/mL) | 32 (≈ 10.2 µg/mL) | 1 (≈ 0.318 µg/mL) | 2 (≈ 0.637 µg/mL)
6 | O=C1/C(=N\Nc2nccs2)c2ccccc2N1Cc1ccc(Cl)cc1Cl | 128 (≈ 51.6 µg/mL) | 64 (≈ 25.8 µg/mL) | 4 (≈ 1.61 µg/mL) | 4 (≈ 1.61 µg/mL) | 2 (≈ 0.807 µg/mL) | 128 (≈ 51.6 µg/mL) | 64 (≈ 25.8 µg/mL) | 128 (≈ 51.6 µg/mL) | 64 (≈ 25.8 µg/mL) | 64 (≈ 25.8 µg/mL) | 64 (≈ 25.8 µg/mL) | 32 (≈ 12.9 µg/mL) | 16 (≈ 6.45 µg/mL) | 64 (≈ 25.8 µg/mL) | 32 (≈ 12.9 µg/mL) | 16 (≈ 6.45 µg/mL)
7 | CCCCCCCCCCN1C(=O)/C(=N\Nc2nccs2)c2ccccc21 | 512 (≈ 197 µg/mL) | 4 (≈ 1.54 µg/mL) | 512 (≈ 197 µg/mL) | 512 (≈ 197 µg/mL) | 512 (≈ 197 µg/mL) | 256 (≈ 98.4 µg/mL) | 512 (≈ 197 µg/mL) | 64 (≈ 24.6 µg/mL) | 64 (≈ 24.6 µg/mL) | 512 (≈ 197 µg/mL) | 512 (≈ 197 µg/mL) | 512 (≈ 197 µg/mL) | 256 (≈ 98.4 µg/mL) | 64 (≈ 24.6 µg/mL) | 256 (≈ 98.4 µg/mL) | 512 (≈ 197 µg/mL)
8 | CCCCN1C(=O)/C(=N\Nc2nccs2)c2cccc(Cl)c21 | 0.5 (≈ 0.167 µg/mL) | 1 (≈ 0.335 µg/mL) | 64 (≈ 21.4 µg/mL) | 0.5 (≈ 0.167 µg/mL) | 64 (≈ 21.4 µg/mL) | 0.5 (≈ 0.167 µg/mL) | 1 (≈ 0.335 µg/mL) | 0.5 (≈ 0.167 µg/mL) | 1 (≈ 0.335 µg/mL) | 0.5 (≈ 0.167 µg/mL) | 0.5 (≈ 0.167 µg/mL) | 0.5 (≈ 0.167 µg/mL) | 1 (≈ 0.335 µg/mL) | 4 (≈ 1.34 µg/mL) | 32 (≈ 10.7 µg/mL) | 128 (≈ 42.9 µg/mL)
9 | O=C1/C(=N\Nc2nccs2)c2ccccc2N1Cc1cccc(F)c1 | 64 (≈ 22.6 µg/mL) | 8 (≈ 2.82 µg/mL) | 4 (≈ 1.41 µg/mL) | 16 (≈ 5.64 µg/mL) | 4 (≈ 1.41 µg/mL) | 256 (≈ 90.2 µg/mL) | 512 (≈ 180 µg/mL) | 256 (≈ 90.2 µg/mL) | 128 (≈ 45.1 µg/mL) | 128 (≈ 45.1 µg/mL) | 256 (≈ 90.2 µg/mL) | 64 (≈ 22.6 µg/mL) | 32 (≈ 11.3 µg/mL) | 16 (≈ 5.64 µg/mL) | 32 (≈ 11.3 µg/mL) | 128 (≈ 45.1 µg/mL)
